# Assay results: patent USRE49128E1, “Hydroxyl purine compounds and applications thereof” (GUANGDONG RAYNOVENT BIOTECH CO., LTD., priority 2014, dated 2022)
# Experiments:
# TNF-α = experiment: Effect of compounds on TNF-α in LPS-induced blood of rats in vitro (ELISA); format: cell-based, Sprague Dawley rats; conditions: compound 100 μM; LPS-induced rat blood, 5 hours; plasma TNF-α by ELISA; read-out: TNF-α inhibition ratio
# Protocol: Experimental objective: Detect the effects of compounds on TNF-α in LPS-induced blood of rats in vitro, evaluate the inhibitory effect of the compounds on TNF-α in LPS-induced blood of rats.
# Sprague Dawley rats (male, 210-260 g, 8-10 weeks old, Shanghai Slack);
# Rat TNF-alpha Quantikine ELISA Kit (R&D, #SRTA00).
# Test compounds solutions with a concentration of 1 mM were prepared, 40 μL of which (the final concentration of the compound was 100 μM) was respectively added to 48-hole cell culture plates. Rats were anesthetized with isoflurane, heart blood was collected (heparin was used to anticoagulation). The blood was added to the 48-hole plates holding the test compounds, 320 μL per hole. The 48-hole plates were placed in a cell incubator and incubated for 30 minutes, 40 μL LPS solution was added (100 μg/mL), mixed and placed in the incubator and continued to incubate. the 48-hole plates was taken out after 5 hours, the blood samples were transferred to 1.5 mL centrifuge tubes, centrifuged in a centrifuge (4,500 rpm, 4° C., 5 minutes), the upper plasma were separated, frozen after storage and stored in a refrigerator at −80° C. The levels of TNF-α in plasma samples were measured using the R & D ELISA kit according to the kit instructions the nest day.
# [1] = target: T1, recombinant full-length PDE2A protein (Homo sapiens, UniProt O00408); experiment: Evaluation of PDE2 phosphodiesterase inhibitory activity in vitro (fluorescence polarization, Transcreener AMP2/GMP2); format: biochemical; conditions: IC50 classes; substrate 1 μM cGMP; room temperature one hour
# T1 construct: Expression of recombinant full-length PDE2A protein in insect Sf9 cells; GST (N); made in house; host or cells: insect Sf9 cells (baculovirus)
# Protocol: Experimental objective: The substituted Alexa Fluor 633 fluorescent dye on the AMP/GMP antibodies was detected by the fluorescence polarization analysis to determine the concentration of AMP/GMP produced in the reaction system, which was used to calculate the IC50 values of the test compounds against PDE2 phosphodiesterase.
# The measured buffer solution: 10 mM Tris-HCl, pH 7.5, 5 mM MgCl2, 0.01% Brij 35, 1 mM DTT, and 1% DMSO.
# Enzyme: Expression of recombinant full-length PDE2A protein in insect Sf9 cells using N-terminal GST-tag with baculovirus.
# Transcreener® AMP^2/GMP^2 antibody, AMP2/GMP2 AlexaFluor 633 fluorescent dye.
# The enzyme solution was prepared using freshly prepared buffer solution, and then added to the reaction holes, the DMSO solutions of the test compounds were added by the Echo550 non-contact nanoliter acoustic pipetting system, and then pre-incubated at room temperature for 10 minutes, the reaction was initiated by the addition of the substrate (1 μM cGMP), and then reacted at room temperature for one hour. And then the detection system (Transcreener® AMP^2/GMP^2 antibody, AMP2/GMP2 AlexaFluor 633 fluorescent dye) was added, reacted at room temperature for 90 minutes, the fluorescence polarization was detected using Ex/Em 620/688.
# The fluorescence polarization intensity was converted to nM concentration by AMP/GMP standard curve, The relative enzyme activity relative to DMSO blank was calculated, IC50 values and curves were calculated using Prism software packages (GraphPad Software, San Diego Calif., USA).
# [2] = Pharmacokinetic evaluation of compounds in SD rats; format: in vivo, Sprague Dawley rats; conditions: male, Sprague-Dawley, rat, plasma, single intravenous injection and oral administration; for bioavailability: read-out: Bioavailability F; for clearance: read-out: Clearance rate; for AUC: read-out: Concentration integration AUC; for half-life: read-out: Half-life T1/2 (converted)
# Protocol: Experimental objective: The pharmacokinetics of test compounds in SD rats.
# Sprague Dawley rats (male, 200-300 g, 7-9 weeks old, Shanghai Slack).
# The pharmacokinetic characteristics of rodents after intravenous and oral administration of the compounds were tested according to the standard protocol, in the experiment, the candidate compound was formulated into a clear solution, and the rats were given single intravenous injection and oral administration. Intravenous and oral solvents are a certain proportion of hydroxypropyl βcyclodextrin aqueous solution or physiological saline solution. Blood samples within 24 hours were collected, centrifuged (3000 g) for 15 minutes, the supernatant were separated to obtain the plasma samples, the protein was precipitated by adding a 4 times volume of acetonitrile solution that containing the internal standard, centrifuged and the supernatant was then centrifuged after adding equal volume of water, then the supernatant was injected, the plasma concentration was quantitatively analyzed by LC-MS/MS analysis, and pharmacokinetics parameters such as peak concentration, peak time, clearance rate, half-life, drug area under the curve, bioavailability etc. are calculated.
# T1 sequence (O00408 whole entry, species assumed): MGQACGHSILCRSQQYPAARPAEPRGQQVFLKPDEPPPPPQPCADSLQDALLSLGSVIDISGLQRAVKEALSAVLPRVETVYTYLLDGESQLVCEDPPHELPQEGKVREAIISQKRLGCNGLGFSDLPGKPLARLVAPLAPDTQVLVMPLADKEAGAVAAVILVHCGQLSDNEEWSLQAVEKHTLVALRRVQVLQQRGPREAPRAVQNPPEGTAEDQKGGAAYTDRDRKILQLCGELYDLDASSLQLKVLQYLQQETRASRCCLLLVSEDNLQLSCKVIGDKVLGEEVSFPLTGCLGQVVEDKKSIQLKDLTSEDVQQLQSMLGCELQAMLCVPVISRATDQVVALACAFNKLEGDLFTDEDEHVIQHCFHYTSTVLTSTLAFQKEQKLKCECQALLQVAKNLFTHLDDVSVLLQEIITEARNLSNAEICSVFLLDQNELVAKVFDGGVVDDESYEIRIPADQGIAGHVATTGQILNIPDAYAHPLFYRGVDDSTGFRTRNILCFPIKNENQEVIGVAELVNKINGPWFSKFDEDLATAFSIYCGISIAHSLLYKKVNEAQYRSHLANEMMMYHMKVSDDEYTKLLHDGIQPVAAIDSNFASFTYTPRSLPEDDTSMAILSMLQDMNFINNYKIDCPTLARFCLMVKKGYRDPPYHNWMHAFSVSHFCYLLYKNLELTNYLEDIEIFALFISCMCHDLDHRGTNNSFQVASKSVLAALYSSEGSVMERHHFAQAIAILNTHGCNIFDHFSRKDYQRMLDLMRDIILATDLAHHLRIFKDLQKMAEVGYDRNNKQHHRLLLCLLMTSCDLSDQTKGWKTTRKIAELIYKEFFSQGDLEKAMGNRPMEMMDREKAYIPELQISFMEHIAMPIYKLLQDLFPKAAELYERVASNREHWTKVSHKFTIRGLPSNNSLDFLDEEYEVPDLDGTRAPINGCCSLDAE
SMILES,IC50 [1],bioavailability [2],clearance [2],AUC [2],half-life [2],inhibition at 100 µM (TNF-α)
"Cn1cnc2c1c(=O)n(CC1CCC(O)(C(F)(F)F)CC1)c(=O)n2C (single isomer, unassigned) [Embodiment 12 isomer 1]",10 to 50 µM,–,–,–,–,60 to 80%
"Cn1cnc2c1c(=O)n(CCCCC(C)(O)C(F)(F)F)c(=O)n2C (stereo not drawn) [Embodiment 1, 3,7-Dimethyl-1-(6,6,6-trifluoro-5-hydroxy-5-methylhexyl)-1H-purine-2,6(3H,7H)-dione]",10 to 50 µM,59.7%,54.7 mL/min/kg,1.91 µM·h,0.659 h,60 to 80%
"CCC(O)(CC)CCCCn1c(=O)c2c(ncn2C)n(C)c1=O [Embodiment 2, 1-(5-Ethyl-5-hydroxyheptyl)-3,7-dimethyl-1H-purine-2,6(3H,7H)-dione]",1 to 10 µM,34.2%,63.6 mL/min/kg,0.902 µM·h,0.481 h,–
"Cn1cnc2c1c(=O)n(CC1CCC(O)(C(F)(F)F)CC1)c(=O)n2C (stereo not drawn) [Embodiment 11, 1-((4-Hydroxy-4-(trifluoromethyl)cyclohexyl)methyl)-3,7-dimethyl-1H-purine-2,6(3H, 7H)-dione]",10 to 50 µM,–,–,–,–,60 to 80%
Cn1cnc2c1c(=O)n(Cc1ccc(C(C)(O)C(F)(F)F)cc1)c(=O)n2C (stereo not drawn) [Embodiment 27],1 to 10 µM,33.8%,13.6 mL/min/kg,11.4 µM·h,2.96 h,60 to 80%
Cn1cnc2c1c(=O)n(Cc1ccc(C(C)(O)C(F)(F)F)nc1)c(=O)n2C (stereo not drawn) [Embodiment 28],1 to 10 µM,149%,12.9 mL/min/kg,51.2 µM·h,2.27 h,–
"C[C@H](O)CNCCn1c(=O)c2c(ncn2C)n(C)c1=O [Embodiment 40, (S)-1-(2-((2-Hydroxypropyl)amino)ethyl)-3,7-dimethyl-1H-purine-2,6(3H,7H)-dione]",–,–,–,–,–,60 to 80%

# More lines, main results first:
IC50 [1],bioavailability [2],clearance [2],AUC [2],half-life [2],SMILES,inhibition at 100 µM (TNF-α)
1 to 10 µM,17.1%,58.4 mL/min/kg,1.29 µM·h,6.19 h,"Cn1c(=O)n(CC2CCC(O)(C(F)(F)F)CC2)c(=O)c2c1ncn2CC(F)(F)F (single isomer, unassigned) [Embodiment 45 isomer 2, 1-((4-Hydroxy-4-(trifluoromethyl)cyclohexyl)methyl)-3-methyl-7-(2,2,2-trifluoroethyl)-1H-purine-2,6(3H,7H)-dione]",–
< 1 µM,42.6%,71.6 mL/min/kg,2.49 µM·h,0.56 h,"Cn1c(=O)n(CC2CCC(O)(C(F)(F)F)CC2)c(=O)c2c1ncn2CC1CC1 (single isomer, unassigned) [Embodiment 50 isomer 2, 7-(Cyclopropylmethyl)-1-((4-hydroxy-4-(trifluoromethyl)cyclohexyl)methyl)-3-methyl-1H-purine-2,6(3H,7H)-dione]",80 to 100%
1 to 10 µM,47.9%,54.4 mL/min/kg,4.39 µM·h,0.793 h,"Cn1c(=O)n(CC2CCC(C)(O)CC2)c(=O)c2c1ncn2CC1CC1 (single isomer, unassigned) [Embodiment 51 isomer 2]",80 to 100%
1 to 10 µM,–,–,–,–,"Cn1c(=O)n(CC2CCC(O)(C(F)(F)F)CC2)c(=O)c2c1ncn2CC(F)(F)F (stereo not drawn) [Embodiment 44, 1-((4-Hydroxy-4-(trifluoromethyl)cyclohexyl)methyl)-3-methyl-7-(2,2,2-trifluoroethyl)-1H-purine-2,6(3H,7H)-dione]",80 to 100%
1 to 10 µM,–,–,–,–,"Cn1c(=O)n(CC2CCC(O)(C(F)(F)F)CC2)c(=O)c2c1ncn2CC1CC1 (stereo not drawn) [Embodiment 49, 7-(Cyclopropylmethyl)-1-((4-hydroxy-4-(trifluoromethyl)cyclohexyl)methyl)-3-methyl-1H-purine-2,6(3H,7H)-dione]",80 to 100%
< 1 µM,95.8%,21.5 mL/min/kg,17.8 µM·h,2.18 h,"Cn1c(=O)n(Cc2ccc(C(C)(O)C(F)(F)F)nc2)c(=O)c2c1ncn2CC1CC1 (stereo not drawn) [Embodiment 55, 7-(Cyclopropylmethyl)-3-methyl-1-((6-(1,1,1-trifluoro-2-hydroxypropan-2-yl)pyridin-3-yl)methyl)-1H-purine-2,6-(3H,7H)-dione]",80 to 100%
